In paper PMC2593902, “Regulation of cyclic AMP response-element binding-protein (CREB) by Gq/11-protein-coupled receptors in human SH-SY5Y neuroblastoma cells” (Biochemical Pharmacology, 2008):

Target: T1, M3 muscarinic acetylcholine (mACh) receptor (Homo sapiens, UniProt P20309)
T1 construct: gene CHRM3
Assay: Fura-2 Ca2+ mobilization in SH-SY5Y cells endogenously expressing the receptor (also Ins([…])P3 and phospho-CREB)
Type: cell-based

T1 sequence (P20309 whole entry): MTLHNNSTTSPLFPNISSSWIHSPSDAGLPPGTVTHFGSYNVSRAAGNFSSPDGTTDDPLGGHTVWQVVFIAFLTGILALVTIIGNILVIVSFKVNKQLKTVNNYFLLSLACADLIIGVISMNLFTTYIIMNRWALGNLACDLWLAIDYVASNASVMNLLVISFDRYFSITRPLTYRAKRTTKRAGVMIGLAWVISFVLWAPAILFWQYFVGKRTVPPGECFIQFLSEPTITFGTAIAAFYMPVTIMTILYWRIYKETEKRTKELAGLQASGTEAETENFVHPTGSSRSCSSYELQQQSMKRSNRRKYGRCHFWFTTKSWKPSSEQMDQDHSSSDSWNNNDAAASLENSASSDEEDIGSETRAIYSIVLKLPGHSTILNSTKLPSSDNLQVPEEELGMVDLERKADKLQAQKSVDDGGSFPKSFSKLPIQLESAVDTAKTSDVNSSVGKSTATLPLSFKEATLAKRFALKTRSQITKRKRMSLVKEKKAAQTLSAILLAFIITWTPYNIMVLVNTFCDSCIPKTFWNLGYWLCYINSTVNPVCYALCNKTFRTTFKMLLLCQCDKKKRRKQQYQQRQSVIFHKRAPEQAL

EC50: 800 nM
SMILES: CC(=O)OC(C)C[N+](C)(C)C (stereo not shown) [MCh, methacholine]
